Measured values reported in EP4782440A9, “PSMA COMPOUND, AND PHARMACEUTICAL COMPOSITION CONTAINING SAME AND USE THEREOF” (VITSGEN THERAPEUTICS INC., priority 2023, dated 2025).

Tested on: LnCaP cells
Assay: LnCaP cell uptake and internalization
Assay type: cell-based
Settings: Table 4, 177Lu-labelled, 37 °C, 45 min
Source text: Table 4. Conditions and results of LnCaP cell uptake
wherein [formula] Table 5. Detailed results of LnCaP cell uptake

With `O=C(O)CC[C@H](NC(=O)N[C@@H](CCCCNC(=O)[C@H](Cc1ccc2ccccc2c1)NC(=O)[C@H]1CC[C@H](CNC(=O)CN2CCN(CC(=O)O)CCN(CC(=O)O)CCN(CC(=O)O)CC2)CC1)C(=O)O)C(=O)O` [VWT001500, PSMA-617] as the compound, how does the “Cellular uptake results, internalization rate%” value read?
The value was 9.57%.

What about the “Cellular uptake results, uptake rate%” value of the same compound?
Its value is 1.01%.
